Test results published in paper PMC11785709, “Angelica gigas Nakai (Korean Dang-gui) Root Alcoholic Extracts in Health Promotion and Disease Therapy – active Phytochemicals and In Vivo Molecular Targets” (Pharmaceutical Research, 2025).
≈ marks a conversion by molar mass, not a printed value. Where “and” joins values, the source holds several entries; their conditions need not be identical. Equal values may be shown once. Entries after “also recorded” stand apart in the source; their conditions may differ. Read-outs that look alike come from different tables or passages of the source.

Experiments:
[1] = cited from earlier work
[2] = system: AChE; set-up: method as in PMID 17382968; details: in vitro test; cited from earlier work
[3] = system: HFD-induced obese mice; set-up: method as in PMID 34165214; details: daily oral 10 and 20 mg/kg, 5 weeks; cited from earlier work
[4] = system: AChE; set-up: method as in PMID 17382968; details: ex vivo, 6 h after dose; cited from earlier work
[5] = system: CP-treated mice; set-up: method as in PMID 34875347; details: cited from earlier work
[6] = system: breast cancer cell; set-up: method as in PMID 36830050; details: concentration-dependent; cited from earlier work
[7] = system: TNBS-induced colitis; set-up: method as in PMID 39042157; details: cited from earlier work
[8] = system: MDA-MB231 sc breast cancer xenograft; details: 30 mg/kg ip twice weekly, 5-week assay; cited from earlier work
[9] = rat, in vivo, iv; cited from earlier work
[10] = system: AChE; set-up: method as in PMID 11374978; details: read-out: AChE inhibition IC50; cited from earlier work
[11] = rat, in vivo, po, cited from earlier work
[12] = system: OVX-induced bone loss; set-up: method as in PMID 37866743; details: oral nodakenin; cited from earlier work
[13] = system: scopolamine-induced memory disruption; set-up: method as in PMID 17382968; details: 10 mg/kg, po; cited from earlier work
[14] = system: RANKL-induced osteoclastogenesis; set-up: method as in PMID 37866743; details: cell culture model; cited from earlier work
[15] = system: bone marrow stem cells (BMSCs); set-up: method as in PMID 37866743; details: cell culture exposure; cited from earlier work
[16] = system: CYP2C19 and 3A4; details: cited from earlier work
[17] = system: carboxyesterase-2 (CES2); details: cited from earlier work
[18] = system: collagen/epinephrine-induced thromboembolism; set-up: method as in PMID 34575088; details: D at 12.5 mg/kg; cited from earlier work
[19] = system: destabilization of medial meniscus (DMM) OA; set-up: method as in PMID 33878544; details: daily gavage, 20 mg/kg, 8 weeks after DMM; cited from earlier work
[20] = system: hair growth; set-up: method as in PMID 32823713; details: cited from earlier work
[21] = system: global cerebral ischemia BOCCA model; set-up: method as in PMID 33918660; details: cited from earlier work
[22] = cited from earlier work; remark: listed apart in the source
[23] = system: GDH; set-up: method as in PMID 36455296; details: read-out: GDH inhibition IC50; cited from earlier work
[24] = system: bacteria; experiment: bactericidal activity of D, MIC (Thailand group); format: cell-based; details: converted value in brackets
[25] = system: paclitaxel-CINP; set-up: method as in PMID 33806325; details: cited from earlier work
[26] = system: adipose stem cells (ASCs); set-up: method as in PMID 31861646; details: cited from earlier work
[27] = system: HepG2 cells; set-up: method as in earlier work; details: free fatty acid mixture (oleate:palmitate = 2:1); cited from earlier work
[28] = system: kainic acid (KA)-induced status epilepticus; set-up: method as in PMID 25171200; details: D ip 20 mg/kg 30 min prior to KA; cited from earlier work
[29] = system: MAO-B; set-up: method as in PMID 28109809; details: screened at 10 μM; cited from earlier work
[30] = system: AR; ERα; details: cited from earlier work
[31] = system: bacteria; set-up: method as in doi:10.7324/JAPS201331012; details: cited from earlier work
[32] = oral AGN 100 mg per rat (~ 300 mg/kg bw); cited from earlier work
[33] = system: most sensitive bacterial strain; experiment: bactericidal activity of D, MIC; format: cell-based; details: converted value in brackets; read-out: minimal inhibitory concentration
[34] = system: most sensitive bacterial strain; set-up: method as in PMID 12877552; details: cited from earlier work
[35] = system: human MAO-A; set-up: method as in PMID 28109809; details: cited from earlier work
[36] = system: TRPV1; set-up: method as in PMID 33806325; details: capsaicin-induced, F11 cell culture; read-out: TRPV1-Ca2+ release IC50; cited from earlier work
[37] = system: high fat-diet induced obesity; set-up: method as in PMID 21972114; details: HFD plus D 200 mg/kg (ppm), 7 weeks; cited from earlier work
[38] = system: acute thermal pain models and CINP; set-up: method as in PMID 36249788; details: once-daily ip; hot plate, tail-flick and CINP mice; cited from earlier work
[39] = topical 0.15% D or 2% AGN root extract

For `CC(C)(O[C@@H]1O[C@H](CO)[C@@H](O)[C@H](O)[C@H]1O)[C@H]1Cc2cc3ccc(=O)oc3cc2O1` [Nodakenin, nodakenin], the “apparent volume of distribution Vd” value ([1]; in vivo) is given as 2800 L, the t1/2 ([1]; in vivo) is given as 6.28 h and the IC50 [2] is given as 84.7 µM. For the same molecule, the “suppression of weight gain, dyslipidemia and fatty liver” value [3] was “comparable potency to orlistat”, the “brain slice AChE activity” value [4] was “lowered” and the “levels of IFN-γ, IL-12, IL-2, IL-6, and TNF-α in serum and spleen” value [5] was “increased”. For the same molecule, the “breast cancer cell viability” value [6] was “inhibited breast cancer cell viability”, the “downregulation of COX-2 mRNA expression” value ([7]; colon sample, 40 mg/kg) was 1.98 fold and the “downregulation of IL-1β mRNA expression” value ([7]; colon sample, 40 mg/kg) was 1.29 fold. For the same molecule, the “downregulation of IL-18 mRNA expression” value ([7]; colon sample, 40 mg/kg) was 1.17 fold, the “downregulation of NFƙB mRNA expression” value ([7]; colon sample, 40 mg/kg) was 1.24 fold and the “downregulation of NLRP3 mRNA expression” value ([7]; colon sample, 40 mg/kg) was 1.78 fold. For the same molecule, the “downregulation of iNOS mRNA expression” value ([7]; colon sample, 40 mg/kg) was 1.2 fold, the “disease activity index (DAI) score” value ([7]; gavage 10, 20, and 40 mg/kg) was “lowered the DAI score” and the xenograft growth inhibition [8] was ~ 88%. For the same molecule, the t1/2 [9] was 3.3 h, the IC50 [10] was 68 µM and the t1/2 ([11]; 2.5 mg/kg) was 4.6 h. For the same molecule, the t1/2 ([11]; 10 mg/kg) was 6.2 h, the bone mass [12] was “elevated mouse bone mass” and the scopolamine-induced memory disruption [13] was “ameliorate”. For the same molecule, the osteoclastogenesis [14] was “inhibited RANKL-induced osteoclastogenesis” and the osteogenic differentiation [15] was “promoted osteogenic differentiation”.

For `CC(C)=CC(=O)O[C@H]1Cc2cc3ccc(=O)oc3cc2OC1(C)C` [D, decursin], the t1/2 ([1]; 4.6 g AGN root powder per subject) is given as 3.03 h, the tmax ([1]; in vivo) is given as 26.4 min and the “Cyp isoforms for metabolism to DOH” value [16] is given as “major human isoforms”. For the same molecule, the “CES2 contribution to metabolism to DOH” value [17] was “further contributed”, the protection against thromboembolism [18] was “replicated the protective effect” and the “destruction of articular cartilage” value [19] was “attenuated the destruction of articular cartilage”. For the same molecule, the “time at which hair growth was complete” value [20, 39] was 17 days, the “time from which hair growth was visibly facilitated” value [20, 39] was 7 days and the hair growth ([20]; topical twice a day 17 days, 0.15% D or 2% AGN root extract) was “promoted hair growth in equal efficacy”. The “protection of CA1 pyramidal neurons” value ([21]; oral post-ischemia, AGN 350 and 400 mg/kg or D 25 mg/kg) was “spared the pyramidal neurons from ischemic death; also recorded: detectable protection”, the “spatial memory (8-ARMT) and learning memory (PAT)” value ([21]; post-treatment, 5 days following BOCCA) was “preserved spatial memory” and the “relative circulating Cmax and AUC” value ([22]; in vivo) was about 1 ×. The “relative plasma Cmax” value ([22]; in vivo) was 1 x, the Cmax ([22]; read-out: mean peak concentration Cmax, 10 men and 10 women, 800 mg INM176 AGN oral) was 5.3 nM and the IC50 [23] was ~1000 nM and 1000 nM. The MIC [24] was about 98 µM (≈ 32.2 µg/mL), the mechanical allodynia relief ([25]; first it injection of D 50 mg/kg) was “no relief” and the “duration of blunted allodynia” value ([25]; second and third it injections) was “up to 3 h”. The adipocyte differentiation [26] was “significantly inhibited adipocyte differentiation”, the lipid accumulation [27] was “suppressed lipid accumulation” and the behavioral seizure activity [28] was “decreased behavioral seizure activity”. For the same molecule, the “inhibitory activity on MAO-B” value [29] was “lacked any inhibitory activity”, the IC50 ([30]; antagonist/degrader) was about 5 µM and the “mode of action on AR and ERα” value ([30]; responsive cancer cell culture models) was “antagonists/degraders”. For the same molecule, the MIC [31] was ~ 32 mg/L, the IC50 [10] was 390 µM and the “elimination of plasma D” value [32] was “barely detectable after 7 h”. The “time of peak absorption, plasma D” value [32] was “around 4 h”, the MIC [33] was about 38 µM (≈ 12.5 µg/mL) and the minimal inhibitory concentration [34] was ~ 12.5 mg/L. For the same molecule, the IC50 ([35]; read-out: MAO-A inhibition IC50) was 1890 nM, the Ki ([35]; reversible and competitive inhibitor) was 170 nM and the IC50 [36] was about 1000 nM. For the same molecule, the weight gain [37] was “decreased weight gain”.

In the case of `CN1CC[C@]23c4c5ccc(O)c4O[C@H]2[C@@H](O)C=C[C@H]3[C@H]1C5` [morphine, reference compound], the “time to tolerance development” value [38] is listed as under 3 days.
